The text below walks through data of patent US4766212A, “2H-[1]benzoxepino[5,4-b]-1,4-oxazine derivatives” (Merrell Dow Pharmaceuticals Inc., priority 1987, dated 1988).

Assay [1] deals with mice. The assay can be described thus: Acetic acid writhing syndrome test for analgesic activity. Format: in vivo, mouse. As to conditions: for ED50: Mus musculus, sc. On the procedure: J. Pharmacol., 22, 2246 (1964).
Groups of 5 to 10 mice are administered one or more doses of the test compound by the desired route (but not intraperitoneally). At a selected time the mice are administered acetic acid, 0.4 ml (0.25% v/v solution) i.p. Five minutes later, the mice are observed for a period of 15 minutes to determine the appearance of squirming (abdominal writhing), and the number of squirms for each mouse is determined.
For ED50 determination, four or more doses of compound are tested in groups of 10 mice. The following ED50 's for analgesic activity were observed and determined.
(In general: In writhing tests, fewer writhes than in controls are read as antinociception.)

For assay [2], the system named is mice. As to the kind of experiment: Reduction of motor ability, rotorod. Format: in vivo. As to conditions: Mus musculus, ip, 50% decrease in mean time on the rotorod. On the procedure:
Following a method of Kinnard and Carr, J. Pharmacol. Exp. Therap., 121, 354 (1957), groups of 10 mice are preselected for their ability to remain upon a horizontal rotating (15 rpm) rod (rotorod) for 120 seconds. The mice are dosed with the test compound and tested at various times. The percent change in mean time upon the rotorod from the pre-drug control time of 120 seconds is calculated for each dose group. […] The ED50 is defined as the dose of compound producing a 50% decrease in mean time on the rotorod.
For orientation: In the rotarod test animals must keep their balance on a rotating rod.

The subject of assay [3] is morphine-induced Straub tail. As to the kind of experiment: Antagonism of morphine-induced Straub tail (muscle relaxant activity). As to conditions: Mus musculus, ip; mice, i.p., 15 min before morphine sulfate s.c. Format: in vivo. The method, then:
The characteristic elevation of the mouse tail (Straub tail) following morphine administration is due to a sustained, centrally mediated reflex contraction of the sacrococcygeus dorsalis muscle. Five to ten mice are used in each test, weight (18 to 30 grams) and placed in a Plexiglass observation chamber 2 to 3 minutes prior to injection. Animals are treated with the test compound at log doses, ca. 10 ml/kg, based upon the ED50 obtained from the Rotorod test (reduction of motor ability). Fifteen minutes later the desired dose of morphine sulfate, ca. 10 ml/kg, is injected subcutaneously and the mice observed for a period of 30 minutes following morphine administration for the presence or absence of Straub tail (defined as elevation of tail at 90° C. or more).

The subject of assay [4] is Spontaneously hypertensive rats. The assay can be described thus: Systolic arterial blood pressure in spontaneously hypertensive rats (antihypertensive activity). The settings on record: for Change In Systolic Blood Pressure From Control Post Treatment: * p < 0.05. Format: in vivo, rat. The method, then: Spontaneously hypertensive rates (males 250-300 g), obtained from the Charles River Breeding Laboratories, are divided into different treatment groups of 12 rats each. On separate days, one group of 12 rats is given 3, 10 or 30 mg/kg of the test compound, trans-3,4,4a,5,6,11b-hexahydro-10-fluoro-2H-[1]benzoxepino[5,4-b]-1,4-oxazine hydrochloride, by gavage and another group of 12 rats is given water (vehicle, 5 ml/kg).
Systolic arterial blood pressure is recorded from the tail of each rat using an occluding cuff and transducer. Systolic arterial blood pressure is recorded prior and subsequent to the administration of drug or vehicle at 1, 2, 3 and 4 hours post treatment.

The mark [5] stands for this setting: 0.5 h, oral, pretreatment time 30 minutes.
The mark [6] stands for this setting: 0.5 h, subcutaneous, pretreatment time 30 minutes.
[7] abbreviates: 1 h, subcutaneous, pretreatment time 60 minutes.
Setting [8] is: 2 h, subcutaneous, pretreatment time 120 minutes.

`CN1CCO[C@@H]2c3ccccc3OCC[C@H]21.O=C(O)/C=C\C(=O)O` (relative stereo) [Trans-3,4,4a,5,6,11b-Hexahydro-4-methyl-2H-[1]benzoxepino[5,4-b]-1,4-oxazine Maleate]: the ED50 in assay [1] (setting [5]) was 42.8 mg/kg; in assay [1] (setting [6]) it was 4.35 mg/kg; in assay [1] (1 h, oral, pretreatment time 60 minutes) it was 52.2 mg/kg; in assay [1] (setting [7]), 13.8 mg/kg; in assay [1] (setting [8]), 26.6 mg/kg; in assay [2] it was 12.4 mg/kg. This molecule also returned an ED50 in assay [3] of 2.89 mg/kg. Also, the “analgesic effect in brackets beside the ED50” value in assay [1] (subcutaneous, pretreatment time 120 minutes, @ 256 mg/kg) is reported as 50%.
Consider `Cl.Fc1ccc2c(c1)[C@H]1OCCN[C@@H]1CCO2` (relative stereo) [trans-3,4,4a,5,6,11b-hexahydro-10-fluoro-2H-[1]benzoxepino[5,4-b]-1,4-oxazine hydrochloride], for which the “Change In Systolic Blood Pressure From Control Post Treatment” value in assay [4] (3 mg/kg by gavage, 1 Hour) was -15 mm Hg; in assay [4] (3 mg/kg by gavage, 2 Hours) it was -20 mm Hg; in assay [4] (3 mg/kg by gavage, 3 Hours) it was -22 mm Hg; in assay [4] (3 mg/kg by gavage, 4 Hours) it was -24 mm Hg; in assay [4] (10 mg/kg by gavage, 1 Hour), -52 mm Hg; in assay [4] (10 mg/kg by gavage, 2 Hours), -44 mm Hg. The “Change In Systolic Blood Pressure From Control Post Treatment” value in assay [4] (10 mg/kg by gavage, 3 Hours) is given as -42 mm Hg; in assay [4] (10 mg/kg by gavage, 4 Hours), -45 mm Hg; in assay [4] (30 mg/kg by gavage, 1 Hour) it was -84 mm Hg; in assay [4] (30 mg/kg by gavage, 2 Hours), -73 mm Hg; in assay [4] (30 mg/kg by gavage, 3 Hours) it was -73 mm Hg; in assay [4] (30 mg/kg by gavage, 4 Hours), -72 mm Hg. The “effect on systolic arterial blood pressure, in words” value in assay [4] (3, 10, 30 mg/kg by gavage) is on record as “dose related decrease in systolic arterial blood pressure that is statistically significant”. In addition, the “duration of the anti-hypertensive effect” value in assay [4] (at the three doses tested (3, 10, 30 mg/kg, gavage)) was “at least 4 hours”.
For the molecule `CCN1CCO[C@@H]2c3ccccc3OCC[C@H]21` (relative stereo) [Trans-4-Ethyl-3,4,4a,5,6,11b-hexahydro-2H-[1]benzoxepino[5,4-b]-1,4-oxazine], the ED50 in assay [1] (setting [5]) was 6.8 mg/kg; in assay [1] (setting [6]), 1.5 mg/kg; in assay [1] (setting [7]) it was 8.8 mg/kg; in assay [1] (setting [8]), over 128 mg/kg.
Turning to `Cl.c1ccc2c(c1)OCC[C@H]1NCCO[C@H]21` (relative stereo) [Trans-3,4,4a,5,6,11b-Hexahydro-2H-[1]benzoxepino-[5,4-b]-1,4-oxazine Hydrochloride], the ED50 in assay [2] amounted to 23.9 mg/kg; in assay [3] it was 1.03 mg/kg.

Broadly, the ED50 is the midpoint of the dose-response relation.
